The source of these data is patent US10081606B2, “Heteroaryl compounds and uses thereof” (Celgene CAR LLC, priority 2010, dated 2018).

The target in experiment [1] is pEGFR in H1975 cells (Homo sapiens (Human), UniProt P00533, L858R/T790M). Particulars: 500 nM for 1 hr, 0-24 hr.
Experiment [2] concerns H1975 cells (EGFR L858R/T790M). Description: Cell proliferation (CellTiter Glo, 72 hr), H1975. Conditions: for GI50: Homo sapiens, NCI-H1975; for Ratio WT/mutant: proliferation GI50, WT (A431) vs H1975. It counts as cell-based, human. How it is done:
(§1) A431 human epidermoid carcinoma, H1975 human NSCLC and HCC827 human NSCLC adenocarcinoma cells were obtained from the American Type Culture Center (Manassas, Va.). A431 cells were grown in DMEM (Invitrogen, Carlsbad, Calif.) supplemented with 10% FBS (HyClone, South Logan, Utah) and 1% Penicillin-Streptomycin (P/S, Lonza, Walkersville, Md.).
(§2) Growth inhibition (GI50) values were determined by Graph Pad Prism.
Background: In ATP-based viability assays light output follows the ATP content of the culture.

Experiment [3] concerns the target T1, EGFR T790M/L858R (Homo sapiens (Human), UniProt P00533, L858R/T790M). Particulars: MS analysis.
Experiment [4] has as its system HCC827 cells (EGFR delE746-A750). Description: Cell proliferation (CellTiter Glo, 72 hr), HCC827. It counts as cell-based, human. Conditions: for GI50: Homo sapiens; for Ratio WT/mutant: proliferation GI50, WT (A431) vs HCC827. The procedure:
as §1, §2

For experiment [5], the system named is A431 cells (WT EGFR). Kind of experiment: Cell proliferation (CellTiter Glo, 72 hr), A431. Type of experiment: cell-based. Particulars: Homo sapiens, A-431. The procedure: as §1, §2
For experiment [6], the target named is EGFR L858R/T790M (H1975 cells) (Homo sapiens (Human), UniProt P00533, L858R/T790M). Description: EGFR signaling immunoblot (1 hr) in H1975 cells. Type of experiment: cell-based. Particulars: signaling EC50, WT (A431) vs H1975. The procedure:
as §1
(§3) All primary antibodies were obtained from Cell Signaling (Danvers, Mass.) and used at 1:1000. Secondary antibodies were used at 1:10,000. Goat anti-mouse IgG IRDye 800CW antibody was obtained from LiCor Biosciences (Lincoln, Nebr.) and goat anti-rabbit IgG Alexa Fluor 680 was obtained from Invitrogen.
(§4) Cells were grown in 12-well plates (Corning, Coring, N.Y.) to 90% confluence and then incubated in low-serum (0.1% FBS) media for 16-18 hr. […] A431 cells were then stimulated with 50 ng/ml EGF (Peprotech, Rocky Hill, N.J.) for 15 min. After treatment, cell monolayers were washed with cold PBS (Invitrogen) and immediately lysed by scrapping into 60 uL cold Cell Extraction Buffer (Invitrogen) supplemented with Complete Protease inhibitors (Roche, Indianapolis, Ind.) and PhosphoSTOP (Roche) phosphatase inhibitors.
(§5) Phospho-protein signals were quantitated using Odyssey Infrared Imaging (Li-Cor Biosciences).
Blots were normalized as indicated above. […] Normalized data was fitted using a sigmoidal curve analysis program (Graph Pad Prism version 5) with variable Hill slope to determine the EC50 values.
In general terms: A western blot detects proteins with antibodies after separation by electrophoresis.

The target in experiment [7] is EGFR delE746-A750 (HCC827 cells) (Homo sapiens (Human), UniProt P00533, DEL746-750). Kind of experiment: EGFR signaling immunoblot (1 hr) in HCC827 cells. It counts as cell-based. Particulars: signaling EC50, WT (A431) vs HCC827. How it is done: as §1, §3, §4, §5
Blots were normalized as indicated above. […]

The target in experiment [8] is T1, EGFR T790M/L858R. Description: Omnia biochemical assay, EGFR-T790M/L858R. Particulars: biochemical IC50, WT EGFR vs T790M/L858R.
Description: Kinase reactions were started with the addition of 45 μL of the ATP/Tyr-Sox peptide substrate mix and monitored every 71 seconds for 60 minutes at λex360/λem485 in a Synergy^4 plate reader from BioTek (Winooski, Vt.).
Setting [9] is: H1975 cells, 72 hr, read-out: H1975 GI50.
The mark [10] stands for this setting: HCC827 cells, 72 hr, read-out: HCC827 GI50.
Setting [11] is: A431 cells, 72 hr, read-out: WT EGFR GI50.

Where two headings read alike, the source gives them in different places. A value given as a limit tells only on which side of the number the result lay.

For the compound `C=CC(=O)Nc1cccc(Oc2nc(Nc3ccccc3OC)ncc2C(F)(F)F)c1` [Compound I-2, N-(3-(2-(2-methoxyphenylamino)-5-(trifluoromethyl)pyrimidin-4-yloxy)phenyl)acrylamide], the “duration of action after washout (pEGFR inhibition)” value in experiment [1] is recorded as “prolonged duration of action”. In addition, the GI50 (commonly the concentration giving 50% growth inhibition) was greater than 1000 nM in experiment [2] (setting [9]), 100 to 500 nM in experiment [4] (setting [10]) and greater than 1000 nM in experiment [5] (setting [11]). Also, in experiment [3], the “covalent modification of EGFR T790M/L858R” value is reported as “covalently modify”.
`C=CC(=O)Nc1cccc(Nc2nc(Nc3ccc(OC)c(OC)c3OC)ncc2Cl)c1` [Compound I-4, N-(3-(5-chloro-2-(2,3,4-trimethoxyphenylamino)pyrimidin-4-ylamino)phenyl)acrylamide]: the GI50 in experiment [2] (setting [9]) was 100 to 500 nM; in experiment [4] (setting [10]), 100 to 500 nM; in experiment [5] (setting [11]), greater than 1000 nM.
On to `C=CC(=O)Nc1cccc(Nc2nc(Nc3ccc(OC)c(OC)c3OC)ncc2Br)c1` [Compound I-5, N-(3-(5-bromo-2-(2,3,4-trimethoxyphenylamino)pyrimidin-4-ylamino)phenyl)acrylamide], for which the GI50 is greater than 1000 nM in experiment [2] (setting [9]), 100 to 500 nM in experiment [4] (setting [10]) and greater than 1000 nM in experiment [5] (setting [11]). Moreover, the “Ratio WT/mutant” value is listed as greater than 1 in experiment [2], greater than 20 in experiment [4] and greater than 50 in experiment [6].
Regarding `C=CC(=O)Nc1cccc(Oc2nc(Nc3cccc(OC)c3OC)ncc2Br)c1` [Compound I-6, N-(3-(5-bromo-2-(2,3-dimethoxyphenylamino)pyrimidin-4-yloxy)phenyl)acrylamide], the GI50 in experiment [2] (setting [9]) was 500 to 1000 nM; in experiment [4] (setting [10]), 500 to 1000 nM; in experiment [5] (setting [11]), greater than 1000 nM. In addition, the “Ratio WT/mutant” value in experiment [2] and in experiment [4] was greater than 1 throughout.
Take `C=CC(=O)Nc1cccc(Oc2nc(Nc3ccc(OC)c(OC)c3OC)ncc2Br)c1` [Compound I-8, N-(3-(5-bromo-2-(2,3,4-trimethoxyphenylamino)pyrimidin-4-yloxy)phenyl)acrylamide]: the GI50 is greater than 1000 nM in experiment [2] (setting [9]), 100 to 500 nM in experiment [4] (setting [10]) and greater than 1000 nM in experiment [5] (setting [11]).
`C=CC(=O)Nc1cccc(Oc2nc(Nc3ccc(OC)cc3OC)ncc2C(F)(F)F)c1` [Compound I-9, N-(3-(2-(2,4-dimethoxyphenylamino)-5-(trifluoromethyl)pyrimidin-4-yloxy)phenyl)acrylamide]: the GI50 is 100 to 500 nM in experiment [2] (setting [9]), 100 to 500 nM in experiment [4] (setting [10]) and greater than 1000 nM in experiment [5] (setting [11]).
Turning to `C=CC(=O)Nc1cccc(Oc2nc(Nc3ccc(OC)c(OC)c3OC)ncc2C(F)(F)F)c1` [Compound I-10, N-(3-(5-(trifluoromethyl)-2-(2,3,4-trimethoxyphenylamino)pyrimidin-4-yloxy)phenyl)acrylamide], the 50% growth inhibitory concentration (GI50) was 100 to 500 nM in experiment [2] (setting [9]), 100 to 500 nM in experiment [4] (setting [10]) and greater than 1000 nM in experiment [5] (setting [11]). Besides, the results for the “Ratio WT/mutant” value in experiment [2], in experiment [4] and in experiment [6] were greater than 10, greater than 10 and greater than 50, respectively.
In the case of `C=CC(=O)Nc1cccc(Nc2nc(Nc3ccc(OC)c(OC)c3OC)ncc2C(F)(F)F)c1` [Compound I-11, N-(3-(5-(trifluoromethyl)-2-(2,3,4-trimethoxyphenylamino)pyrimidin-4-ylamino)phenyl)acrylamide], the GI50 in experiment [2] (setting [9]) is 100 to 500 nM; in experiment [2] (Table 2, H1975 cells (L858R/T790M), read-out: Comparative GI50, H1975), 100 to 500 nM; in experiment [4] (setting [10]), 10 to 100 nM; in experiment [4] (Table 2, HCC827 cells (delE746-A750), read-out: Comparative GI50, HCC827) it was 10 to 100 nM; in experiment [5] (setting [11]) it was greater than 1000 nM; in experiment [5] (Table 2, A431 cells (WT EGFR), read-out: Comparative GI50, A431), greater than 1000 nM. Further, the “Ratio WT/mutant” value is on record as greater than 10 in experiment [2], greater than 5 in experiment [7], greater than 40 in experiment [4] and greater than 50 in experiment [6].
Regarding `C=CC(=O)Nc1cccc(Oc2nc(Nc3ccc(OC)cc3OC)ncc2Br)c1` [Compound I-13, N-(3-(5-bromo-2-(2,4-dimethoxyphenylamino)pyrimidin-4-yloxy)phenyl)acrylamide], the GI50 in experiment [2] (setting [9]) is 500 to 1000 nM; in experiment [4] (setting [10]), 100 to 500 nM; in experiment [5] (setting [11]) it was greater than 1000 nM.
`C=CC(=O)Nc1cccc(Nc2nc(Nc3cccc(OC)c3OC)ncc2Br)c1` [Compound I-14, N-(3-(5-bromo-2-(2,3-dimethoxyphenylamino)pyrimidin-4-ylamino)phenyl)acrylamide]: the “Ratio WT/mutant” value in experiment [8] was greater than 50.
Regarding `C=CC(=O)Nc1cccc(Oc2nc(Nc3ccc(OC)cc3OC)ncc2Cl)c1` [Compound I-15, N-(3-(5-chloro-2-(2,4-dimethoxyphenylamino)pyrimidin-4-yloxy)phenyl)acrylamide], the GI50 in experiment [2] (setting [9]) is greater than 1000 nM; in experiment [4] (setting [10]) it was 100 to 500 nM; in experiment [5] (setting [11]) it was greater than 1000 nM.
Regarding `C=CC(=O)Nc1cccc(Nc2nc(Nc3cccc(OC)c3OC)ncc2C(F)(F)F)c1` [Compound I-16, N-(3-(2-(2,3-dimethoxyphenylamino)-5-(trifluoromethyl)pyrimidin-4-ylamino)phenyl)acrylamide], the GI50 was greater than 1000 nM in experiment [2] (setting [9]), 500 to 1000 nM in experiment [4] (setting [10]) and greater than 1000 nM in experiment [5] (setting [11]).
As for `C=CC(=O)Nc1cccc(Oc2nc(Nc3cccc(OC)c3OC)ncc2Cl)c1` [Compound I-17, N-(3-(5-chloro-2-(2,3-dimethoxyphenylamino)pyrimidin-4-yloxy)phenyl)acrylamide], in experiment [8], the “Ratio WT/mutant” value is recorded as greater than 35.
For `C=CC(=O)Nc1cccc(Nc2nc(Nc3ccccc3OC)ncc2Cl)c1` [Compound I-18, N-(3-(5-chloro-2-(2-methoxyphenylamino)pyrimidin-4-ylamino)phenyl)acrylamide], the results for the GI50 in experiment [2] (setting [9]), in experiment [4] (setting [10]) and in experiment [5] (setting [11]) were greater than 1000 nM, 500 to 1000 nM and greater than 1000 nM, respectively. For the same compound, the “Ratio WT/mutant” value in experiment [2] is recorded as greater than 1; in experiment [4], greater than 5.
As to `C=CC(=O)Nc1cccc(Oc2nc(Nc3ccccc3OC)ncc2F)c1` [Compound I-19, N-(3-(5-fluoro-2-(2-methoxyphenylamino)pyrimidin-4-yloxy)phenyl)acrylamide], the GI50 was greater than 1000 nM in experiment [2] (setting [9]), 100 to 500 nM in experiment [4] (setting [10]) and greater than 1000 nM in experiment [5] (setting [11]). In addition, the “Ratio WT/mutant” value in experiment [2] is greater than 1; in experiment [4], greater than 10.
Regarding `C=CC(=O)Nc1cccc(Nc2nc(Nc3ccc(OC)cc3OC)ncc2Br)c1` [Compound I-20, N-(3-(5-bromo-2-(2,4-dimethoxyphenylamino)pyrimidin-4-ylamino)phenyl)acrylamide], the GI50 in experiment [2] (setting [9]) is greater than 1000 nM; in experiment [4] (setting [10]), 100 to 500 nM; in experiment [5] (setting [11]) it was greater than 1000 nM. Also, the “Ratio WT/mutant” value in experiment [2] is greater than 1; in experiment [4], greater than 10.
For the compound `C=CC(=O)Nc1cccc(Nc2nc(Nc3ccc(OC)cc3OC)ncc2Cl)c1` [Compound I-21, N-(3-(5-chloro-2-(2,4-dimethoxyphenylamino)pyrimidin-4-ylamino)phenyl)acrylamide], the figures for the concentration for 50% growth inhibition (GI50) in experiment [2] (setting [9]), in experiment [4] (setting [10]) and in experiment [5] (setting [11]) were greater than 1000 nM, 500 to 1000 nM and greater than 1000 nM, respectively. Moreover, the results for the “Ratio WT/mutant” value in experiment [2], in experiment [4] and in experiment [6] were greater than 1, greater than 5 and greater than 5, respectively.
Take `C=CC(=O)Nc1cccc(Nc2nc(Nc3ccccc3OC)ncc2Br)c1` [Compound I-22, N-(3-(5-bromo-2-(2-methoxyphenylamino)pyrimidin-4-ylamino)phenyl)acrylamide]: the results for the GI50 in experiment [2] (setting [9]), in experiment [4] (setting [10]) and in experiment [5] (setting [11]) were 500 to 1000 nM, 500 to 1000 nM and greater than 1000 nM, respectively.
For `C=CC(=O)Nc1cccc(Oc2nc(Nc3cccc(OC)c3OC)ncc2C(F)(F)F)c1` [Compound I-23, N-(3-(2-(2,3-dimethoxyphenylamino)-5-(trifluoromethyl)pyrimidin-4-yloxy)phenyl)acrylamide], the GI50 in experiment [2] (setting [9]), in experiment [4] (setting [10]) and in experiment [5] (setting [11]) was greater than 1000 nM in each case.
